Test system: H460 (NSCLC) xenografts
Assay: H460 (NSCLC) xenograft, oral HDAC inhibitor with taxol
Assay type: in vivo, mouse
Method: Antitumor studies were done using human H460 non-small cell lung tumor, Du145 prostate tumor, TSU-Pr1 prostate tumor, and AZ521 gastric tumor xenograft model in male BALBc/A nude mice (from Japan Crea Inc., Japan). Male nude mice were used at age 8-10 weeks. Human carcinoma cells were injected subcutaneously in the animal flank and allowed to form solid tumors. Tumor fragments (about 2 mm^3 fragments) were then removed and implanted subcutaneously through a small surgical incision to the right flank of other animals. […] Tumor volumes and gross body weight of animals were monitored twice weekly for up to 2 weeks for AZ-521 and TSU-Pr1, or 4 weeks for H460 and Du145 xenografts. Each experimental group contained 6 animals.

Question: With `Nc1ccccc1NC(=O)c1ccc(CNc2nccc(-c3cccnc3)n2)cc1` [Compound A] as the molecule, how does the “tumor response to combination therapy with taxol” value (Compound A 100 mg/kg or SAHA 120 mg/kg with taxol 60 mg/kg) read?
Answer: tumor regression

Question: What about the “anti-tumor effect of taxane (tumor volume)” value (Compound A 100 mg/kg p.o. 3 times per week with taxol 60 mg/kg i.v. day 1) of the same molecule?
Answer: potentiation

— patent publication US20090124631A1, “Combination Therapy” (priority 2007, published 2009)
